Results published in ChEMBL document CHEMBL1201862, “PubChem BioAssay data set” (2004).
The source made the active and inactive calls.

Columns and labels:
Prothrombin = Prothrombin (Homo sapiens, UniProt P00734); assay: Thrombin 1536 HTS Dose Response Confirmation. [Related pubchem assays: 1046 (Thrombin 1536 HTS; hits were confirmed in this assay)]; format: functional
Estrogen receptor beta [1] = biological target: T1, Estrogen receptor beta (Homo sapiens, UniProt Q92731); assay: ERβ–SRC-3 coactivator interaction inhibitors, confirmation, orthogonal assay, biochemical, ELISA, streptavidin-HRP readout (AID 1060)
[2] = inhibitors of clade B AD8 Env fusion, dose response, cell-based, cherry-pick (AID 652062); format: functional;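 note: luciferase signal from cell-cell fusion driven by HIV-1 clade B AD8 Env; potency is for inhibitors of fusion seen as a drop in luminescence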
[3] = ZM109 Env clade C HIV-1 fusion inhibitors, dose response, HeLa effector, CEM target cells, luciferase, cherry-pick (AID 652058); format: functional, cell-based
[4] = off-target signal loss in HeLa-CEM21 co-culture – HeLa F-luc CTL cells, cherry-picked, counter-screen for HIV-1 Env fusion inhibitor project, dose response (AID 652040); format: functional, cell-based;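 note: potency for signal decrease marking cytotoxic or nonspecific inhibition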
[5] = biological target: T2, Heat shock factor protein 1 (Mus musculus, UniProt P38532); assay: inhibition of MG132-induced HSE-luciferase signal, confirmation, cell-based, NIH3T3, luminescence, dose retest (AID 2382); format: functional;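 note: NIH3T3 fibroblasts with HSF1-driven luciferase reporter stressed by proteasome inhibitor MG132; luminescence from HSF1-driven luciferase expression after 8 hours of MG132 stress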
T2 sequence (P38532 whole entry): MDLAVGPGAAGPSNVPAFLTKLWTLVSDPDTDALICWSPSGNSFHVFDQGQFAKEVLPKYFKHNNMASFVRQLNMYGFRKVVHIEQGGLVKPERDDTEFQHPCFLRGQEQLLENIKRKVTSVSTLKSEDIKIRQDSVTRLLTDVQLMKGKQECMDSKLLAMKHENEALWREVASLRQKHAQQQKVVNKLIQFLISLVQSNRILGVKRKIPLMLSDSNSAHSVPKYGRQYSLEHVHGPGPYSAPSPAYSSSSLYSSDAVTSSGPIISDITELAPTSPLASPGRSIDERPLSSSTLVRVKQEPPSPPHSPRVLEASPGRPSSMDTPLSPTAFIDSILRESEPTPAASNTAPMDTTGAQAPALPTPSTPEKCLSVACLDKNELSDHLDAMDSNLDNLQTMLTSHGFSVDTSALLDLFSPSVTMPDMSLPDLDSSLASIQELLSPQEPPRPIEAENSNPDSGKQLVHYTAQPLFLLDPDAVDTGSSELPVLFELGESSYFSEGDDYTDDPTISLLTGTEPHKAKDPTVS

[6] = biological target: T3, Tyrosine-protein phosphatase non-receptor type 7 (Homo sapiens, UniProt P35236); assay: inhibitors of human HePTP phosphatase, […], biochemical, absorbance, leukemia target (AID 521); format: functional
T3 sequence (P35236 whole entry): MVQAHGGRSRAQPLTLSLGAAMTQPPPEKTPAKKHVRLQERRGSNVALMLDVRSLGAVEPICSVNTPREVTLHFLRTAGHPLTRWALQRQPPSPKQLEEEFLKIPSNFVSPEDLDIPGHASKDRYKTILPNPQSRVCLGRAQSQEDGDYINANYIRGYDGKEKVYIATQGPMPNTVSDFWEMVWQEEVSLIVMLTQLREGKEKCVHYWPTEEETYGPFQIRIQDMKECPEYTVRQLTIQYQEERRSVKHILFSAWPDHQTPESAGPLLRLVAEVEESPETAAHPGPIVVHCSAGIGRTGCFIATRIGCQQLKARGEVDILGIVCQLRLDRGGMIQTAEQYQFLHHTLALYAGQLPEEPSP

[7] = inhibitors of HIV Env-driven cell fusion, dose response, cherry-pick (AID 652057); format: functional, cell-based
[8] = NIH:OVCAR-3 ovarian cancer cell cytotoxicity, dose response, PAX8 inhibitor project, plate reader, dry powder samples (AID 743044); format: functional, cell-based
Paired box protein Pax-8 = Paired box protein Pax-8 (Homo sapiens, UniProt Q06710); assay: inhibitors of PAX8-driven TPO luciferase reporter, dose response, RMG-I cells, cherry-pick (AID 687027); format: functional, cell-based;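 note: luciferase reporter driven by Pax8 target thyroperoxidase promoter measured by SteadyGlo luminescence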
[9] = cytotoxicity in OVCAR8 ovarian cancer cells, dose response, PAX8 project, cell-based, plate reader, dry powder samples (AID 743197); format: functional; details: OVCAR-8
[10] = non-specific cell cytotoxicity, dose response, cytotoxicity control for PAX8 inhibitor project, plate reader, dry powder samples (AID 743021); format: functional, cell-based
[11] = Luminescence Cell-Based Dose Response HTS to Identify Inhibitors of 5'UTR Stem-Loop Driven Prion Protein mRNA Translation in H4 Neuroglioblastoma Cells. [Related pubchem assays: 1827 (Project Summary), 1813 (Primary HTS)]; format: functional
[12] = inhibitors of SNCA 5'UTR-driven reporter translation, confirmation, H4 neuroglioma cells, luminescence (AID 1988); format: functional, cell-based
[13] = cytotoxicity in HEK-293T cells, dose response, cytotoxicity control for TCR NF-kB inhibitor project, luminescence, T-cell screen hits (AID 489026); format: functional, cell-based;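 note: cells exposed to compound about 14 hours before the viability readout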
[14] = inhibitors of firefly luciferase expression or activity, dose response, H4 neuroglioma cells, luminescence (AID 1990); format: functional, cell-based
[15] = biological target: T4, Ubiquitin carboxyl-terminal hydrolase BAP1 (Homo sapiens, UniProt Q92560); assay: BAP1 deubiquitinase inhibitors, dose response, biochemical (AID 714); format: functional
T4 sequence (Q92560 whole entry): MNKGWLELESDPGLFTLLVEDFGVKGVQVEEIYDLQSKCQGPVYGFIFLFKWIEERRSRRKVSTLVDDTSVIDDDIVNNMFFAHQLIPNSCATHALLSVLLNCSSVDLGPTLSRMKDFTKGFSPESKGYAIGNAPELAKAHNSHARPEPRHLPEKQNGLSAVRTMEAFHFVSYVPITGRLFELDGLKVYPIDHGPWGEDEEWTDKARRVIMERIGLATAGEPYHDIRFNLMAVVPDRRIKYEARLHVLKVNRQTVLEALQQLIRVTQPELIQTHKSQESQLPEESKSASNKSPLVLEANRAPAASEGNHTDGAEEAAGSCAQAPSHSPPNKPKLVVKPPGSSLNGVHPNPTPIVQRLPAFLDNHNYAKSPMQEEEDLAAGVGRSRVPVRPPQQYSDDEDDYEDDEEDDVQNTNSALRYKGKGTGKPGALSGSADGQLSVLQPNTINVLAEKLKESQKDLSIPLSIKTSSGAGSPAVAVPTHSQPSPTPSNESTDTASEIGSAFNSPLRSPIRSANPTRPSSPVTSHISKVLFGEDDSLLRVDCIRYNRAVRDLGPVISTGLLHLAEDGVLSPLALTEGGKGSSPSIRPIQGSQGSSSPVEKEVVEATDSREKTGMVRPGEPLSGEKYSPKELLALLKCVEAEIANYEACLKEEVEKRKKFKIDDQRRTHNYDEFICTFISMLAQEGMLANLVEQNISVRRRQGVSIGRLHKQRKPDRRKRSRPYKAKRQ

[16] = biological target: T5, Oxysterols receptor LXR-beta (Homo sapiens, UniProt P55055); format: functional, cell-based
T5 sequence (P55055 whole entry): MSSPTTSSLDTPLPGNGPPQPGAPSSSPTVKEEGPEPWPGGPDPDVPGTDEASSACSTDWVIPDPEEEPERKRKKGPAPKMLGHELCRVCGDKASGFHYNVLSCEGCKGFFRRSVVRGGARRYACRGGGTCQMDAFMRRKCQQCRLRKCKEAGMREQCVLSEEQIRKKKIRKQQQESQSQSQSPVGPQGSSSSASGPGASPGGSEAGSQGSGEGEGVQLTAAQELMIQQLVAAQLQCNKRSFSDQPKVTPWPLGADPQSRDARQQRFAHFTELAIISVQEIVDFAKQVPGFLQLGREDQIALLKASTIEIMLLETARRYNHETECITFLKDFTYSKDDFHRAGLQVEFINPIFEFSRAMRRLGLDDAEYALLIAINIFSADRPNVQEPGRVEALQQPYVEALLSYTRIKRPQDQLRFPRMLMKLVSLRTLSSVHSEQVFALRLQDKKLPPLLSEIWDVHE

[17] = biological target: G-protein coupled receptor 55 (Homo sapiens, UniProt Q9Y2T6); assay: GPR55 agonists via beta-arrestin recruitment, primary screen, imaging, U2OS cells, beta-arrestin-GFP redistribution (AID 1961); format: functional
[18] = biological target: T5, Oxysterols receptor LXR-beta; format: functional, cell-based; remark: listed apart in the source
Estrogen receptor beta [19] = biological target: T1, Estrogen receptor beta
[20] = biological target: T6, Carboxy-terminal domain RNA polymerase II polypeptide A small phosphatase 1 (Homo sapiens, UniProt Q9GZU7); assay: inhibitors of CTDSP1, concentration-response testing, biochemical assay, absorbance-based, actives from ultra-high-throughput screening (AID 540297); format: functional
T6 sequence (Q9GZU7 whole entry): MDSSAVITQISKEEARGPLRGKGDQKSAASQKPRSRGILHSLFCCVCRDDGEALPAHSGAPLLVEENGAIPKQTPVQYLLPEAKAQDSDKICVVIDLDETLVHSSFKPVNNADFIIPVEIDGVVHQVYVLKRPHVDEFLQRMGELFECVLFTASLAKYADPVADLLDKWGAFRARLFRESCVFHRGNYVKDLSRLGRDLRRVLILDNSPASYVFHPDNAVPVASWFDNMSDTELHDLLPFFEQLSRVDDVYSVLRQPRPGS

Sequence of Paired box protein Pax-8 (Q06710 whole entry): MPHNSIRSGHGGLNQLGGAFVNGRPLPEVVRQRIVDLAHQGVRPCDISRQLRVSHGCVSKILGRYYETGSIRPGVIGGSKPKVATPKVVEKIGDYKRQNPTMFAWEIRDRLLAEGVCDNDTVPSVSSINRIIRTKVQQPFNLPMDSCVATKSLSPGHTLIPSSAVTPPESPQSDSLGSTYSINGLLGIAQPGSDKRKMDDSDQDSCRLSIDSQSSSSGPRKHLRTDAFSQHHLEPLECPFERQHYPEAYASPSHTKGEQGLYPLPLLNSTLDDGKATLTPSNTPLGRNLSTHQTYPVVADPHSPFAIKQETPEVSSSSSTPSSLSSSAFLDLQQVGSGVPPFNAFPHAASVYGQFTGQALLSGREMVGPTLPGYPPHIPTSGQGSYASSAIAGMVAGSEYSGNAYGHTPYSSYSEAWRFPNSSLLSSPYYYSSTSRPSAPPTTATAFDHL
T1 sequence (Q92731 whole entry, the tested form may be a part): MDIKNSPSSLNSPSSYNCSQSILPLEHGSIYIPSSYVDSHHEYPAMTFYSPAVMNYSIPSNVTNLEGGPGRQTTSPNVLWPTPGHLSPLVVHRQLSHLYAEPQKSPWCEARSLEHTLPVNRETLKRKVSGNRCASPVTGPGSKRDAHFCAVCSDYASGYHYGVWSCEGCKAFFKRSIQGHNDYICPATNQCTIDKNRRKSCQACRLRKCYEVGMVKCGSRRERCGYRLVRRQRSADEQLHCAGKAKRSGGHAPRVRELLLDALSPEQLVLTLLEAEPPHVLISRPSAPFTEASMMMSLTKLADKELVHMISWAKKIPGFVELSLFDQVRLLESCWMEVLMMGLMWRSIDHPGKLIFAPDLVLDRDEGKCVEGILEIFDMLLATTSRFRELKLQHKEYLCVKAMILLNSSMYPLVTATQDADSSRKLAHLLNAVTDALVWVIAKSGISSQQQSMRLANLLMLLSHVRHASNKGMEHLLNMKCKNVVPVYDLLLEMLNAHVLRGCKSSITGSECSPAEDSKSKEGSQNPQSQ
Sequence of G-protein coupled receptor 55 (Q9Y2T6 whole entry): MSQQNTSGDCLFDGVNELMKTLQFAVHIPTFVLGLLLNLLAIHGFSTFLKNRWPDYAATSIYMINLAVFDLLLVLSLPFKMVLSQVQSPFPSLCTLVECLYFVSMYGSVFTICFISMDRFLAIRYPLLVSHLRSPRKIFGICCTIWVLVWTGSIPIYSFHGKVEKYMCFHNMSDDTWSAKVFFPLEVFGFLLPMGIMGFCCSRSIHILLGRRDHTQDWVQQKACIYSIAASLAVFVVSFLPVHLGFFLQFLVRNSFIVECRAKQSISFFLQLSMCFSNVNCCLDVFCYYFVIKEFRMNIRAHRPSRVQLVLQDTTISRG

Compound: CC1CCc2[nH]nc(C(=O)O)c2C1 (stereo not given)
- IC50 (Prothrombin): > 50 µM (not active)

Compound: O=C1c2ccccc2-c2onc3c(Oc4ccccc4)cc(O)c1c23
- IC50 (Estrogen receptor beta [1]): 37 µM (not active)

Compound: c1ccc2c(c1)OCC(c1csc3ncnc(N4CCOCC4)c13)O2 (stereo not given)
- AC50 [2]: 4.95 µM (active)
- AC50 [3]: 11.6 µM (active)
- AC50 [4]: 21.4 µM (active)
- EC50 [5]: 171 µM (active)
- IC50 [6]: > 100 µM (not active)
- AC50 [7]: 4.1 µM (active)

Compound: C[C@@H]1CN([C@@H](C)CO)C(=O)c2cc(NC(=O)Nc3ccc(F)cc3)ccc2O[C@@H](C)CCCCO[C@H]1CN(C)Cc1ccc(C(F)(F)F)cc1
- AC50 [8]: 16.3 µM (active)
- AC50 (Paired box protein Pax-8): 6.74 µM (active)
- AC50 [9]: 51.7 µM (active)
- AC50 [10]: 1.84 µM (active)

Compound: COc1ccc(/C=c2/sc3n(c2=O)C(c2ccccc2OC)C2=C(N=3)c3ccccc3CC2)cc1O (stereo not given)
- EC50 [11]: 13.9 µM (active)
- EC50 [12]: 0.403 µM (active)
- AC50 (Paired box protein Pax-8): 2.28 µM (active)
- AC50 [10]: 52 µM (active)
- IC50 [13]: > 80 µM (inactive)
- EC50 [14]: 0.112 µM (active)

Compound: CCOC(=O)c1c(NC(=O)c2cccs2)sc(C)c1CC
- IC50 [15]: 30.4 µM (not active)

Compound: CC(C)C[C@H](NC(=O)OCC1c2ccccc2-c2ccccc21)C(=O)O
- EC50 [16]: > 67.5 µM (inactive)

Compound: COc1ccc(N2C(=O)CSC2c2cccc(OC)c2OC)cc1 (stereo not given)
- IC50 (Prothrombin): > 50 µM (not active)

Compound: O=C(NCc1ccco1)c1cc2nc(-c3ccc4c(c3)OCO4)cc(C(F)(F)F)n2n1
- IC50 [15]: 20.4 µM (active)
- EC50 [17]: > 32 µM (inactive)

Compound: CC(C)C(OC(=O)c1cccs1)C(=O)NCc1ccco1 (stereo not given)
- IC50 [6]: > 100 µM (not active)

Compound: Nc1cccc2c1C(=O)N(CCOc1ccccc1F)C2=O
- EC50 (cells): > 67.6 µM (inactive)
- EC50 [18]: > 67.6 µM (inactive)

Compound: CCOC(=O)c1cnc(SCC(=O)Nc2sc(C)c(C)c2C#N)nc1N
- IC50 [15]: 18.7 µM (active)

Compound: C[C@H](CO)N1C[C@H](C)[C@H](CN(C)S(=O)(=O)c2ccc(Cl)cc2)OCCCC[C@H](C)Oc2ccc(NC(=O)Nc3ccc(C(F)(F)F)cc3)cc2C1=O
- AC50 [8]: 60 µM (active)
- AC50 (Paired box protein Pax-8): 4.52 µM (active)
- AC50 [10]: 34.6 µM (active)

Compound: Cc1c(-c2ccccn2)c(=O)[nH]n1-c1ccc(F)cc1
- EC50 (cells): > 67.5 µM (inactive)
- EC50 [18]: > 67.5 µM (inactive)

Compound: Cc1ccc(N=C2Nc3ccccc3CS2)cc1
- EC50 [18]: > 67.5 µM (inactive)

Compound: O=C(c1ccc([N+](=O)[O-])cc1)n1nc(-c2ccccc2)nc1NCc1ccc(F)cc1
- IC50 (Prothrombin): 0.464 µM (active)

Compound: O=c1c2cc(N3CCOCC3)ccc2[nH]c(=S)n1Cc1ccco1
- IC50 (Estrogen receptor beta [1]): 6.02 µM (not active)
- IC50 (Estrogen receptor beta [19]): > 50 µM (not active)

Compound: Cc1ccc(NC2=Nc3ccccc3CS2)cc1
- EC50 (cells): > 67.5 µM (inactive)

Compound: OCCNc1ncnc2c1c(-c1ccccc1)c(-c1ccccc1)n2Cc1ccco1
- IC50 [6]: > 100 µM (not active)

Compound: COc1ccc2c(=O)c3c(=O)n(Cc4ccco4)c(-c4ccco4)nc3oc2c1
- IC50 [20]: 4.9 µM (active)
- IC50 (Estrogen receptor beta [19]): > 50 µM (not active)
